Measured values reported in patent US9469650B2, “Melampomagnolide B derivatives” (BOARD OF TRUSTEES OF THE UNIVERSITY OF ARKANSAS, priority 2013, dated 2016).

How the values were obtained:
A549/ATCC = test: panel of 60 human tumor cell lines, growth inhibition (Non-Small Cell Lung Cancer); conditions: Homo sapiens
T-47D = test: panel of 60 human tumor cell lines, growth inhibition (Breast Cancer); conditions: Homo sapiens, T47D
LOX IMVI = test: panel of 60 human tumor cell lines, growth inhibition (Melanoma); conditions: Homo sapiens
HCT-116 = test: panel of 60 human tumor cell lines, growth inhibition (Colon Cancer); conditions: Homo sapiens; for GI50: HCT-116, HCT-116
PC-3 = test: panel of 60 human tumor cell lines, growth inhibition (Prostate Cancer); conditions: Homo sapiens
MCF7 = test: panel of 60 human tumor cell lines, growth inhibition (Breast Cancer); conditions: Homo sapiens; for GI50: MCF7, MCF7
M14 = test: panel of 60 human tumor cell lines, growth inhibition (Melanoma); conditions: Homo sapiens
MOLT-4 = test: panel of 60 human tumor cell lines, growth inhibition (Leukemia); conditions: Homo sapiens
SK-MEL-28 = test: panel of 60 human tumor cell lines, growth inhibition (Melanoma); conditions: Homo sapiens
MDA-MB-231/ATCC = test: panel of 60 human tumor cell lines, growth inhibition (Breast Cancer); conditions: Homo sapiens
UO-31 = test: panel of 60 human tumor cell lines, growth inhibition (Renal Cancer); conditions: Homo sapiens
SNB-75 = test: panel of 60 human tumor cell lines, growth inhibition (CNS Cancer); conditions: Homo sapiens
NCI/ADR-RES = test: panel of 60 human tumor cell lines, growth inhibition (Ovarian Cancer); conditions: Homo sapiens
SK-MEL-2 = test: panel of 60 human tumor cell lines, growth inhibition (Melanoma); conditions: Homo sapiens
SN12C = test: panel of 60 human tumor cell lines, growth inhibition (Renal Cancer); conditions: Homo sapiens
CAKI-1 = test: as above; conditions: Homo sapiens
SK-MEL-5 = test: panel of 60 human tumor cell lines, growth inhibition (Melanoma); conditions: Homo sapiens
SW-620 = test: panel of 60 human tumor cell lines, growth inhibition (Colon Cancer); conditions: Homo sapiens; for GI50: SW-620, SW-620

For `C=C1C(=O)O[C@H]2[C@H]1CC/C(COC(=O)Nc1n[nH]c(SC)n1)=C\CC[C@@]1(C)O[C@@H]21` [JVM 64, ((1aR,7aS,10aS,10bS,E)-1a-methyl-8-methylene-9-oxo-1a,2,3,6,7,7a,8,9,10a,10b-decahydrooxireno[2′,3′:9,10]cyclodeca[1,2-b]furan-5-yl)methyl-(5-(methylthio)-1H-1,2,4-triazol-3-yl)carbamate], which GI50 (A549/ATCC; A549) is on record?
Its GI50 is 4.19 µM.

What about the CC50 (A549/ATCC; A549, read-out: LC50) of the same compound?
The CC50 was 83.5 µM.

What about the IC (TGI) (A549/ATCC; A549, read-out: TGI) of the same compound?
The IC (TGI) was 19.9 µM.

What about the GI50 (T-47D) of the same compound?
The GI50 was 2.23 µM.

What about the CC50 (T-47D; read-out: LC50) of the same compound?
The CC50 was 70.9 µM.

What about the IC (TGI) (T-47D; read-out: TGI) of the same compound?
The IC (TGI) was 5.31 µM.

What about the GI50 (LOX IMVI; 5-dose assay) of the same compound?
Its GI50 is 1.95 µM.

And the GI50 (LOX IMVI; NCI five dose)?
The GI50 was 1.95 µM.

And the CC50 (LOX IMVI; read-out: LC50)?
Its CC50 is 19.8 µM.

And the IC (TGI) (LOX IMVI; read-out: TGI)?
Its IC (TGI) is 5.03 µM.

What about the GI50 (HCT-116; 5-dose assay) of the same compound?
Its GI50 is 1.13 µM.

What about the GI50 (HCT-116; NCI five dose) of the same compound?
Its GI50 is 1.13 µM.

What about the CC50 (HCT-116; HCT-116, read-out: LC50) of the same compound?
Its CC50 is 5.86 µM.

And the IC (TGI) (HCT-116; HCT-116, read-out: TGI)?
Its IC (TGI) is 2.6 µM.

And the GI50 (PC-3; PC-3)?
The GI50 was 8.51 µM.

And the CC50 (PC-3; PC-3, read-out: LC50)?
The CC50 was 77 µM.

And the IC (TGI) (PC-3; PC-3, read-out: TGI)?
The IC (TGI) was 26.8 µM.

And the GI50 (MCF7; 5-dose assay)?
Its GI50 is 1.33 µM.

What about the GI50 (MCF7; NCI five dose) of the same compound?
The GI50 was 1.33 µM.

What about the CC50 (MCF7; MCF7, read-out: LC50) of the same compound?
Its CC50 is 70.2 µM.

And the IC (TGI) (MCF7; MCF7, read-out: TGI)?
Its IC (TGI) is 10.5 µM.

And the GI50 (M14; M14)?
Its GI50 is 1.59 µM.

What about the CC50 (M14; M14, read-out: LC50) of the same compound?
The CC50 was 7.09 µM.

And the IC (TGI) (M14; M14, read-out: TGI)?
Its IC (TGI) is 3.36 µM.

What about the GI50 (MOLT-4; MOLT-4) of the same compound?
Its GI50 is 2.32 µM.

And the CC50 (MOLT-4; MOLT-4, read-out: LC50)?
Its CC50 is 88.5 µM.

And the IC (TGI) (MOLT-4; MOLT-4, read-out: TGI)?
The IC (TGI) was 6.59 µM.

What about the GI50 (SK-MEL-28; SK-MEL-28) of the same compound?
The GI50 was 1.85 µM.

And the CC50 (SK-MEL-28; SK-MEL-28, read-out: LC50)?
Its CC50 is 17.9 µM.

And the IC (TGI) (SK-MEL-28; SK-MEL-28, read-out: TGI)?
Its IC (TGI) is 4.86 µM.

And the GI50 (MDA-MB-231/ATCC; MDA-MB-231)?
Its GI50 is 2.93 µM.

And the CC50 (MDA-MB-231/ATCC; MDA-MB-231, read-out: LC50)?
The CC50 was 37.7 µM.

What about the IC (TGI) (MDA-MB-231/ATCC; MDA-MB-231, read-out: TGI) of the same compound?
Its IC (TGI) is 9.22 µM.

What about the GI50 (UO-31; UO-31) of the same compound?
Its GI50 is 1.98 µM.

And the CC50 (UO-31; UO-31, read-out: LC50)?
The CC50 was 34 µM.

What about the IC (TGI) (UO-31; UO-31, read-out: TGI) of the same compound?
The IC (TGI) was 7.86 µM.

And the GI50 (SNB-75; SNB-75)?
The GI50 was 1.71 µM.

And the CC50 (SNB-75; SNB-75, read-out: LC50)?
The CC50 was 33.4 µM.

And the IC (TGI) (SNB-75; SNB-75, read-out: TGI)?
Its IC (TGI) is 10.1 µM.

And the GI50 (NCI/ADR-RES)?
The GI50 was 24.7 µM.

What about the CC50 (NCI/ADR-RES; read-out: LC50) of the same compound?
Its CC50 is over 100 µM.

What about the IC (TGI) (NCI/ADR-RES; read-out: TGI) of the same compound?
The IC (TGI) was over 100 µM.

What about the GI50 (SK-MEL-2; SK-MEL-2) of the same compound?
The GI50 was 3.56 µM.

What about the CC50 (SK-MEL-2; SK-MEL-2, read-out: LC50) of the same compound?
Its CC50 is 62.2 µM.

And the IC (TGI) (SK-MEL-2; SK-MEL-2, read-out: TGI)?
The IC (TGI) was 13.1 µM.

What about the GI50 (SN12C) of the same compound?
Its GI50 is 2.9 µM.

And the CC50 (SN12C; read-out: LC50)?
Its CC50 is 44.6 µM.

What about the IC (TGI) (SN12C; read-out: TGI) of the same compound?
The IC (TGI) was 10.7 µM.

And the GI50 (CAKI-1; CAKI-1)?
The GI50 was 1.99 µM.

And the CC50 (CAKI-1; CAKI-1, read-out: LC50)?
The CC50 was 36.6 µM.

And the IC (TGI) (CAKI-1; CAKI-1, read-out: TGI)?
Its IC (TGI) is 6.93 µM.

What about the GI50 (SK-MEL-5; SK-MEL-5) of the same compound?
Its GI50 is 3.13 µM.

What about the CC50 (SK-MEL-5; SK-MEL-5, read-out: LC50) of the same compound?
The CC50 was 37.5 µM.

What about the IC (TGI) (SK-MEL-5; SK-MEL-5, read-out: TGI) of the same compound?
The IC (TGI) was 12.4 µM.

And the GI50 (SW-620; 5-dose assay)?
Its GI50 is 1.12 µM.

What about the GI50 (SW-620; NCI five dose) of the same compound?
Its GI50 is 1.12 µM.

And the CC50 (SW-620; SW-620, read-out: LC50)?
The CC50 was 8.49 µM.

What about the IC (TGI) (SW-620; SW-620, read-out: TGI) of the same compound?
Its IC (TGI) is 3.09 µM.
